# Laboratory results reported in patent US6022983A, “Pyronin antibacterials, process and novel intermediates thereto” (Scriptgen Pharmaceuticals, Inc., priority 1998, dated 2000).
# Where two headings read alike, the source gives them in different places.
# Columns and labels:
# [1] = system: E. coli* (mutant strain that has permeabilized cell wall); test: Broth microdilution MIC, E. coli* mutant with permeabilized cell wall; format: cell-based; details: Escherichia coli, read-out: MIC E. coli*
# Method: (§1) Different dilutions are performed for natural product extracts.
# [2] = system: S. aureus; test: Broth microdilution MIC, S. aureus; format: cell-based; details: for MIC: Staphylococcus aureus, Table II
# Method: as §1
# [3] = system: S. aureus*; test: Broth microdilution MIC, S. aureus* mutant strain; format: cell-based; details: Staphylococcus aureus, read-out: MIC S. aureus*
# Method: as §1
# [4] = molecular target: E. coli RNA polymerase (Escherichia coli, UniProt P0A8T7+P0A8V2); test: In vitro transcription assay, E. coli RNA polymerase; format: biochemical; details: for IC50: Table II, read-out: In vitro transcription (E.coli RNAP) IC50 (converted); for relative potency in in vitro transcription assay (FIG. 20a,b): comparison in words
# Sequence of E. coli RNA polymerase (P0A8V2 whole entry): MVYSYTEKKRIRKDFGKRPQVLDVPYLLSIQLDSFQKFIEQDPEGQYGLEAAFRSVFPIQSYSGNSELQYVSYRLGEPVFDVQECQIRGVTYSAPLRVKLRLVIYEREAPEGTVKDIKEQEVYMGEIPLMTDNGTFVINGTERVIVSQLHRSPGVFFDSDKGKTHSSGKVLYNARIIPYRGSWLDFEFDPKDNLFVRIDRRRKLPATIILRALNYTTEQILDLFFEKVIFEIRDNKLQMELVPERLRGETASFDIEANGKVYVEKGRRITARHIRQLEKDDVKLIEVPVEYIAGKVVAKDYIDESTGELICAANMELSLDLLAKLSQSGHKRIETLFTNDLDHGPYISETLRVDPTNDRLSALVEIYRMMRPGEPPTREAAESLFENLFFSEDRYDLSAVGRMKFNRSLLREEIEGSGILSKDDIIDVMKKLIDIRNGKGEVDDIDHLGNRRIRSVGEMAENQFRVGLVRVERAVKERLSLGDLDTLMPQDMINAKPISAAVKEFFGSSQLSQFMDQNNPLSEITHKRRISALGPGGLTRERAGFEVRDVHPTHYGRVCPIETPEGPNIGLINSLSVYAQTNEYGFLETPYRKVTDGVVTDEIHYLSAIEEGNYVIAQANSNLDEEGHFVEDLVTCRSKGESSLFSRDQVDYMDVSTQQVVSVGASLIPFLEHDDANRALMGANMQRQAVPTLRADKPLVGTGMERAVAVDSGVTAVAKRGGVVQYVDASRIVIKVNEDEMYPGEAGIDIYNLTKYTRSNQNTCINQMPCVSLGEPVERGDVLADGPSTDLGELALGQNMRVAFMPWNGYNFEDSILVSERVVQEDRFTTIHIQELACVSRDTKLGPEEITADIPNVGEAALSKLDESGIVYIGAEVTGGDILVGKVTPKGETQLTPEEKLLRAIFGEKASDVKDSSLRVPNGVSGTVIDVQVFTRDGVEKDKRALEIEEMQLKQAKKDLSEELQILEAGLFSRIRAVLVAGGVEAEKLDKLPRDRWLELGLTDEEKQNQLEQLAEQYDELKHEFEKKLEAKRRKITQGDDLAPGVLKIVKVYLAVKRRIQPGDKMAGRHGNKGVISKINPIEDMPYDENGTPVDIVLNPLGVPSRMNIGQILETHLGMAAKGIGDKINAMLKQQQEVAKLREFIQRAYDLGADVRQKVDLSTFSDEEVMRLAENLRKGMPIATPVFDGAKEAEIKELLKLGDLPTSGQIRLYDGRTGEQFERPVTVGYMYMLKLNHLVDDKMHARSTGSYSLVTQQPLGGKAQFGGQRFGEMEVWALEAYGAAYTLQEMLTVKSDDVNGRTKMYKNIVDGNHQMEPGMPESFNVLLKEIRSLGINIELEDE
# Sequence of E. coli RNA polymerase (P0A8T7 whole entry): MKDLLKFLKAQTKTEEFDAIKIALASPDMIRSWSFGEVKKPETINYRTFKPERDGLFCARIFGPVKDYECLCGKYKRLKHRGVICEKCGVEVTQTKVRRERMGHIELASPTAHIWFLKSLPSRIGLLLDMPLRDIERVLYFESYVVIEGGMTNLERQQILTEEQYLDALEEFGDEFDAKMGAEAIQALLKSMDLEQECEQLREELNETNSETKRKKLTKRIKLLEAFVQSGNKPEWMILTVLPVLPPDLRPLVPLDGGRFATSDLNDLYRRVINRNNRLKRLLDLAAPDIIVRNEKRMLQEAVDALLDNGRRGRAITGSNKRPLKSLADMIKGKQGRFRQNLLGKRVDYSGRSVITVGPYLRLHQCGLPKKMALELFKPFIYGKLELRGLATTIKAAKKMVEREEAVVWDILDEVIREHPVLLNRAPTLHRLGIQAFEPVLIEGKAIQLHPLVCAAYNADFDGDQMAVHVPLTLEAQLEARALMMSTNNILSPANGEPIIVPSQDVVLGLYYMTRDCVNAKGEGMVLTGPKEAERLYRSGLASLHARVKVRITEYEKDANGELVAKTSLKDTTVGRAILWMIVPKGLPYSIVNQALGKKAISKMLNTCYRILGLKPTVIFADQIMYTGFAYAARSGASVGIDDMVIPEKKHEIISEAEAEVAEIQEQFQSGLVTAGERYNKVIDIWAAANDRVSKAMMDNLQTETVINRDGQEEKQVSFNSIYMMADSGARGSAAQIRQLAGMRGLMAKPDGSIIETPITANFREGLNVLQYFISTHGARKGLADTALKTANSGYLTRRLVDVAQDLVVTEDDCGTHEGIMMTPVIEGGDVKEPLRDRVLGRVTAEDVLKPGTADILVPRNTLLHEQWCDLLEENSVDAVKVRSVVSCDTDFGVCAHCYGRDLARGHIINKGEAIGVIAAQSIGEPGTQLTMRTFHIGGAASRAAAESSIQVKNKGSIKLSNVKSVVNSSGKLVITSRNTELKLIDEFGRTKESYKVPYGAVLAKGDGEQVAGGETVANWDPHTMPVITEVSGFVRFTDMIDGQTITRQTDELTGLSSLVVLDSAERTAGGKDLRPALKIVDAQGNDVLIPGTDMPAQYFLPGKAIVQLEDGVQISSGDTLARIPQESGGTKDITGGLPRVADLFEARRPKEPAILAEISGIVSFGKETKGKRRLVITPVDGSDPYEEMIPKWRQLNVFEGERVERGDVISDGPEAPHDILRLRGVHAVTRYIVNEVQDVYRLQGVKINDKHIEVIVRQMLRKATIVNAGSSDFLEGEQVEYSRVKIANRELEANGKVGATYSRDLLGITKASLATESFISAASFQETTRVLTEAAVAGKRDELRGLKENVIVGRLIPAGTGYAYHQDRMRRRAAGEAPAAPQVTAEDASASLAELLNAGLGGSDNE
# Sequence of E. coli RNA polymerase (P0A7Z4 whole entry partner): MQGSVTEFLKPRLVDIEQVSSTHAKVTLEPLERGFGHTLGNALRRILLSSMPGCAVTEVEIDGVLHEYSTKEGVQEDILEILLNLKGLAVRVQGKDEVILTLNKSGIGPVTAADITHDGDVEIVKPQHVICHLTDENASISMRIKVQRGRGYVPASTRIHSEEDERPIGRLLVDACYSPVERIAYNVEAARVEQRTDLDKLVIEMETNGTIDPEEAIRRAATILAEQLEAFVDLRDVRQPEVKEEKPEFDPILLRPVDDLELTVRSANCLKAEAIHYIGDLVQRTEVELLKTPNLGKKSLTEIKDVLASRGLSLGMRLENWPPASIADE
# Sequence of E. coli RNA polymerase (P0A800 whole entry partner): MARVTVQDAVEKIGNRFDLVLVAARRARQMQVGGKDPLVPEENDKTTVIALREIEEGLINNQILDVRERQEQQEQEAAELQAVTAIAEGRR
# Method: In vitro transcription reactions. [α^32 P] UTP-incorporated RNA was synthesized in 50 μl reaction volumes containing transcription buffer (50 mM Tris-HCl, pH 8.0, 200 mM KCl, 10 mM MgCl2, 10 mM DTT and 1.5 μM BSA), 1 μg of DNA template, 4 μM UTP containing 5 μCi of [α^32 P] UTP, 400 μM each of ATP, GTP, and CTP. After incubation for 60 minutes at 25° C., the reaction is terminated with 100 μl 10% TCA, which also precipitates the newly transcribed RNA.
# Biological Evaluation of (±)-Myxopyronin A & B. The biological activities of the myxypyronins were evaluated with an in vitro transcription assay using E. coli RNA polymerase (FIG. 20a,b). […] As a validation of the in vitro transcription assay, a known transcription inhibitor, rifampicin, was included in the assay.
# [5] = system: E. coli; test: Broth microdilution MIC, E. coli; format: cell-based; details: Escherichia coli; Table II
# Method: as §1
# [6] = system: rifampicin susceptible strains; test: microbe, parasite or virus in culture; details: Staphylococcus aureus
# Method: (§2) Microdilution Minimal Inhibitory Concentration (MIC) and Minimum Bactericidal Concentration (MBC) Assays
# (§3) The MIC is reported as a range between the concentration at which no growth is observed and the concentration of the dilution which immediately followed. Selected inhibitors from the RNA polymerase screen described above were tested for their ability to inhibit bacterial growth in a broth microdilution assay as follows. […] Dilution of antimicrobial agents is performed in a sterile, covered 96-well microliter plate with flat bottom wells (Costar #9017), and each well contains 100 μL of both +/- antimicrobial agent. The final concentrations of the small molecule antimicrobial agents are 100, 50, 25, 12.5, 6.25, 3.12, 1.56, 0.78, 0.39, 0.20, 0.10, and 0.05 μg/mL, respectively. Different dilutions are performed for natural product extracts. They are first diluted 100-fold with Mueller-Hinton broth. The final dilutions of the natural product extracts are 200, 400, 800, 1600, 3200, 6400, 12800, 25600, 51200, 1×105, 2×105, and 4×105 -fold. A 1 % DMSO (no-drug) row is prepared in Mueller-Hinton broth as a control for 100% growth on each plate. A Mueller-Hinton broth only with no bacteria growth is also included as a negative control for each plate. Ampicillin and rifampin are used as positive controls against all bacterial strains in every experiment.
# (§4) The overnight culture of a single colony is diluted in sterile Mueller-Hinton broth so that, after inoculation, each well contains approximately 5×10^5 CFU/mL. Within 15 minutes of preparation, […] of the adjusted inoculum suspension is added to the microliter plate. Each well is diluted with an equal volume of the antimicrobial agent/control substance diluted with sterile Mueller-Hinton broth. The inoculated microliter plate is incubated at 35° C. for 16-20 hours. The turbidity of each well is determined by measuring the absorbance at 595 nm on the BioRad Model 3550-UV microplate reader. The rows containing broth only (no cells) serve as a control, and the rows containing the titration of 1% DMSO serve as a control for 100% growth. The average of the broth only controls is subtracted from the average of each duplicate. This value is subsequently normalized to the average of the DMSO controls.
# [7] = system: rifampicin resistant strains; test: microbe, parasite or virus in culture; details: Staphylococcus aureus
# Method: as §2, §3, §4
SMILES,MIC [1],MIC [2],MIC [3],IC50 [4],"relative potency in in vitro transcription assay (FIG. 20a,b) [4]",MIC [5],"fold more potent cell-based activities than myxopyronin A ([2]; MIC values of Table II, B versus A)","MIC ([6]; read-out: MIC against susceptible strains, Example 9 statement b281)","MIC ([6]; read-out: MIC against susceptible strains, background statement b31)",MIC ([7]; read-out: MIC against resistant strains),MIC ([7]; read-out: MIC against rifampicin resistant strains)
"CCC/C(C)=C/C=C(\C)C(=O)c1c(O)cc(C(C)CC/C=C/NC(=O)OC)oc1=O (racemic) [(±)-Myxo A, (±)-Myxopyronin A]",4 to 8 µg/mL,15 µg/mL,8 µg/mL,47.9 µM,equally potent as the natural product mixtures,> 30 µg/mL,–,–,–,–,–
"CCCC/C(C)=C/C=C(\C)C(=O)c1c(O)cc(C(C)CC/C=C/NC(=O)OC)oc1=O (racemic) [(±)-Myxo B, (±)-Myxopyronin B]",2 µg/mL,0.5 µg/mL,0.5 µg/mL,11.6 µM,more potent molecule than A,> 30 µg/mL,up to 30 fold,–,–,–,–
CO[C@H]1/C=C/O[C@@]2(C)Oc3c(C)c(O)c4c(O)c(c(/C=N/N5CCN(C)CC5)c(O)c4c3C2=O)NC(=O)/C(C)=C\C=C\[C@H](C)[C@H](O)[C@@H](C)[C@@H](O)[C@@H](C)[C@H](OC(C)=O)[C@@H]1C [rifampicin],–,–,–,–,–,–,–,10 µM,~0.01 µM,> 10 µM,> 100 µM
